Legend:
recombinant human HDAC6 = recombinant human HDAC6 (Homo sapiens (Human), UniProt Q9UBN7); assay: Enzymatic screening, HDAC6 inhibition (fluorogenic FdL_G substrate); format: biochemical
Method in brief: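 Enzyme was preincubated with compound (8 doses, triplicate, 1% DMSO) in 25 mM Tris-HCl pH 8, 130 mM NaCl, 0.05% Tween-20, 10% glycerol, with BSA. A FLUOR DE LYS-Green substrate was then added, and fluorescence was read after developer plus 2 μM TSA.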

recombinant human HDAC1 = recombinant human HDAC1 (Homo sapiens (Human), UniProt Q13547); assay: Enzymatic screening, HDAC1 inhibition (fluorogenic FdL_G substrate); format: biochemical
Chain of recombinant human HDAC1 (Q13547 whole entry): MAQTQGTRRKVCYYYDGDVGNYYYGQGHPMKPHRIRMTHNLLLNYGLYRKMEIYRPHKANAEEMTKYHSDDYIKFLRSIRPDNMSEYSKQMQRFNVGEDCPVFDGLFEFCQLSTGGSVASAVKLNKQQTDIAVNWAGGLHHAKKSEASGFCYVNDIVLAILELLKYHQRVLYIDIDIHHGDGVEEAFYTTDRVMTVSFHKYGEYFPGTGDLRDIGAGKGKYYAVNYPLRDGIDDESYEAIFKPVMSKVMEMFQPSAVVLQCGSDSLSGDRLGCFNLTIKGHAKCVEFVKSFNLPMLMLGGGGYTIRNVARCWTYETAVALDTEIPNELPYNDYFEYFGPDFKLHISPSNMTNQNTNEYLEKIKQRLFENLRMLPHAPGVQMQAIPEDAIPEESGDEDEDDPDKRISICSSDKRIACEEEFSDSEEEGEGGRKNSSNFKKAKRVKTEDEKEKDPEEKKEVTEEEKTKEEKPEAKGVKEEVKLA
Method in brief: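 Recombinant human HDAC1 inhibition was measured fluorometrically using the FLUOR DE LYS-Green (FdL_G) substrate. Compounds at 8 doses (1% DMSO final) in Tris-HCl pH 8 buffer with NaCl, Tween-20 and glycerol were preincubated in triplicate with enzyme and 1 mg/mL BSA, then given substrate. Developer I plus 2 μM TSA was added, and fluorescence read after 25 minutes in the dark.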

Chain of recombinant human HDAC6 (Q9UBN7 whole entry): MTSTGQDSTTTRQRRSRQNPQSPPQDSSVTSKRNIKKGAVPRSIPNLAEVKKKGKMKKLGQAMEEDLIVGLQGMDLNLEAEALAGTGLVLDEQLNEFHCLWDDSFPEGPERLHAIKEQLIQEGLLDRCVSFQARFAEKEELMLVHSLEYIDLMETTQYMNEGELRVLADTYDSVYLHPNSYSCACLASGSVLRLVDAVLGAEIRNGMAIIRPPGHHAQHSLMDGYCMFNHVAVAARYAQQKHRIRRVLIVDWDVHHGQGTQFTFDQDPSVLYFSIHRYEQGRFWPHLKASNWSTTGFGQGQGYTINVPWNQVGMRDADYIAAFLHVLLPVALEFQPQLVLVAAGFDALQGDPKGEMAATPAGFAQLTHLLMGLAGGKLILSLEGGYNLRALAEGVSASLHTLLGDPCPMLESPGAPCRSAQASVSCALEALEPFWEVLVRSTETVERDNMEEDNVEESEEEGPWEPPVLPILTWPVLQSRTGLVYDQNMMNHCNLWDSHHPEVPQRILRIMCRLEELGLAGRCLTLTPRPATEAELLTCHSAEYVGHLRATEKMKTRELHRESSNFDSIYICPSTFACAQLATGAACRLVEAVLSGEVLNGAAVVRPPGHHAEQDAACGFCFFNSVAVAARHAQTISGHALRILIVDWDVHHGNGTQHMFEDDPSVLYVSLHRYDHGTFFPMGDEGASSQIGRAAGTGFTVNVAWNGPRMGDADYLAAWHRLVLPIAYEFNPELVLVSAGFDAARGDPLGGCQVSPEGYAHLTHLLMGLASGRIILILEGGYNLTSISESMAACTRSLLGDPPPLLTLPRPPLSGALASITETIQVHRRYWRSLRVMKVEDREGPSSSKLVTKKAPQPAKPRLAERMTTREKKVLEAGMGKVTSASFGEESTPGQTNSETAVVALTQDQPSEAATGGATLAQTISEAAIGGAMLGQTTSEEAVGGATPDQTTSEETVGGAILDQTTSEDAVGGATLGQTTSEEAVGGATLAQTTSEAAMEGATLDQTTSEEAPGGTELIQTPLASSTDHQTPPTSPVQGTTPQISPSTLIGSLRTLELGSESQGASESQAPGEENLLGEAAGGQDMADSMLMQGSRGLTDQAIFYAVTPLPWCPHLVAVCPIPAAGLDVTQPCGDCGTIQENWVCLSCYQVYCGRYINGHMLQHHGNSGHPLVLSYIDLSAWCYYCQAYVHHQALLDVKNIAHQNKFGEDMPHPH

IC50 (recombinant human HDAC6) [nM]	IC50 (recombinant human HDAC1) [nM]	Compound
26	> 1e+06	Cn1c(N)nc2cc(-c3cn(Cc4ccc(-c5nnc(C(F)F)o5)c(F)c4)nn3)ccc21 [compound 346, 5-[1-[[4-[5-(difluoromethyl)-1,3,4-oxadiazol-2-yl]-3-fluorophenyl]methyl]triazol-4-yl]-1-methylbenzimidazol-2-amine]
53	> 200000	O=C(c1cccc(-c2nnn(Cc3ccc(-c4nnc(C(F)F)o4)c(F)c3)n2)c1)N1CCOCC1 [compound 137, (3-(2-(4-(5-(difluoromethyl)-1,3,4-oxadiazol-2-yl)-3-fluorobenzyl)-2H-tetrazol-5-yl)phenyl)(morpholino)methanone]
178	> 200000	O=C(Nc1cccc(-c2nc(Cc3ccc(-c4nnc(C(F)F)o4)cc3)no2)c1)N1CCOCC1 [compound 228, N-(3-(3-(4-(5-(difluoromethyl)-1,3,4-oxadiazol-2-yl)benzyl)-1,2,4-oxadiazol-5-yl)phenyl)morpholine-4-carboxamide]
28	> 200000	CN1CCN(C(=O)Nc2cccc(-c3cn(Cc4c(F)cc(-c5nnc(C(F)F)o5)cc4F)nn3)c2)CC1 [compound 63, N-(3-(1-(4-(5-(difluoromethyl)-1,3,4-oxadiazol-2-yl)-2,6-difluorobenzyl)-1H-1,2,3-triazol-4-yl)phenyl)-4-methylpiperazine-1-carboxamide]
348	1e+06	CCNc1ccc2cc(-c3nnn(Cc4ccc(-c5nnc(C(F)F)o5)c(F)c4)n3)ccc2n1 [compound 410, 6-(2-(4-(5-(difluoromethyl)-1,3,4-oxadiazol-2-yl)-3-fluorobenzyl)-2H-tetrazol-5-yl)-N-ethylquinolin-2-amine]
102	1e+06	CNc1ncc2cc(-c3cn(Cc4c(F)cc(-c5nnc(C(F)F)o5)cc4F)nn3)ccc2n1 [compound 392, 6-[1-({4-[5-(difluoromethyl)-1,3,4-oxadiazol-2-yl]-2,6-difluorophenyl}methyl)-1H-1,2,3-triazol-4-yl]-N-methylquinazolin-2-amine]
151	> 200000	O=C1NCc2ccc(-c3nnnn3Cc3ncc(-c4nnc(C(F)F)o4)cn3)cc21 [compound 298, 6-(1-((5-(5-(difluoromethyl)-1,3,4-oxadiazol-2-yl)pyrimidin-2-yl)methyl)-1H-tetrazol-5-yl)isoindolin-1-one]
28	> 1e+06	[2H]C([2H])(c1cc(F)c(-c2nnc(C(F)F)o2)cc1F)n1cc(-c2ccc(N)nc2)nn1 [compound 381, 5-[1-[dideuterio-[4-[5-(difluoromethyl)-1,3,4-oxadiazol-2-yl]-2,5-difluorophenyl]methyl]triazol-4-yl]pyridin-2-amine]
162	> 200000	Fc1cc(-c2nnn(Cc3ccc(-c4nnc(C(F)F)o4)cc3)n2)ccc1N1CCNCC1 [compound 224, 2-(difluoromethyl)-5-(4-((5-(3-fluoro-4-(piperazin-1-yl)phenyl)-2H-tetrazol-2-yl)methyl)phenyl)-1,3,4-oxadiazole]
36	> 200000	Nc1ccc(-c2cn(C(CO)c3ccc(-c4nnc(C(F)F)o4)cc3)nn2)cn1 (centres unmarked) [Compd. 94, 2-(4-(6-aminopyridin-3-yl)-1H-1,2,3-triazol-1-yl)-2-(4-(5-(difluoromethyl)-1,3,4-oxadiazol-2-yl)phenyl)ethan-1-ol]
18	> 1e+06	[2H]C([2H])(c1ccc(-c2nnc(C(F)F)o2)cc1F)n1cc(-c2ccc3nc(N)sc3c2)nn1 [compound 382, 6-[1-[dideuterio-[4-[5-(difluoromethyl)-1,3,4-oxadiazol-2-yl]-2-fluorophenyl]methyl]triazol-4-yl]-1,3-benzothiazol-2-amine]
39	> 200000	NCc1ccc(-c2cn(Cc3c(F)cc(-c4nnc(C(F)F)o4)cc3F)nn2)cn1 [compound 101, (5-(1-(4-(5-(difluoromethyl)-1,3,4-oxadiazol-2-yl)-2,6-difluorobenzyl)-1H-1,2,3-triazol-4-yl)pyridin-2-yl)methanamine]
52	124000	FC(F)c1nnc(-c2ccc(Cn3cnc(-c4ccc(NC5=NCCN5)cc4)c3)c(Cl)c2)o1 [compound 358, N-[4-[1-[[2-chloro-4-[5-(difluoromethyl)-1,3,4-oxadiazol-2-yl]phenyl]methyl]imidazol-4-yl]phenyl]-4,5-dihydro-1H-imidazol-2-amine]
206	> 200000	Nc1ccc(-c2cn(C(COc3ccccc3)c3ccc(-c4nnc(C(F)F)o4)cc3)nn2)cn1 (centres unmarked) [compound 236, 5-(1-(1-(4-(5-(difluoromethyl)-1,3,4-oxadiazol-2-yl)phenyl)-2-phenoxyethyl)-1H-1,2,3-triazol-4-yl)pyridin-2-amine]
264	> 200000	CC1(C)NC(=O)c2cc(-c3cn(Cc4ccc(-c5nnc(C(F)F)o5)cc4)nn3)ccc21 [compound 245, 6-(1-(4-(5-(difluoromethyl)-1,3,4-oxadiazol-2-yl)benzyl)-1H-1,2,3-triazol-4-yl)-3,3-dimethylisoindolin-1-one]
18	> 1e+06	[2H]C([2H])(c1ccc(-c2nnc(C(F)F)o2)cn1)n1cc(-c2ccc(N)nc2)nn1 [compound 362, 5-[1-[dideuterio-[5-[5-(difluoromethyl)-1,3,4-oxadiazol-2-yl]pyridin-2-yl]methyl]triazol-4-yl]pyridin-2-amine]
90	> 200000	CN(Cc1ccncc1)Cc1ccc(-c2cn(Cc3c(F)cc(-c4nnc(C(F)F)o4)cc3F)nn2)cc1 [compound 179, N-(4-(1-(4-(5-(difluoromethyl)-1,3,4-oxadiazol-2-yl)-2,6-difluorobenzyl)-1H-1,2,3-triazol-4-yl)benzyl)-N-methyl-1-(pyridin-4-yl)methanamine]
109	> 200000	Nc1ccc(-c2cn(Cc3ccc(-c4nnc(C(F)F)o4)nn3)nn2)cn1 [compound 198, 5-(1-((6-(5-(difluoromethyl)-1,3,4-oxadiazol-2-yl)pyridazin-3-yl)methyl)-1H-1,2,3-triazol-4-yl)pyridin-2-amine]
157	> 200000	Nc1ccc(-c2cn(C(Cc3ccccc3)c3ccc(-c4nnc(C(F)F)o4)cc3)nn2)cn1 (centres unmarked) [compound 221, 5-(1-(1-(4-(5-(difluoromethyl)-1,3,4-oxadiazol-2-yl)phenyl)-2-phenylethyl)-1H-1,2,3-triazol-4-yl)pyridin-2-amine]
78	> 200000	CC(c1ccc(-c2nnc(C(F)F)o2)cc1F)n1cc(-c2cccc(NC(=O)N3CCOCC3)c2)nn1 (centres unmarked) [compound 165, N-(3-(1-(1-(4-(5-(difluoromethyl)-1,3,4-oxadiazol-2-yl)-2-fluorophenyl)ethyl)-1H-1,2,3-triazol-4-yl)phenyl)morpholine-4-carboxamide]
41	> 1e+06	Nc1nc2ccc(-c3cn(Cc4ccc(-c5nnc(C(F)F)o5)cc4Cl)nn3)cc2s1 [compound 340, 6-[1-[[2-chloro-4-[5-(difluoromethyl)-1,3,4-oxadiazol-2-yl]phenyl]methyl]triazol-4-yl]-1,3-benzothiazol-2-amine]
187	> 200000	O=C(c1ccc(-c2nnn(Cc3ccc(-c4nnc(C(F)F)o4)cc3)n2)cc1)N1CCOCC1 [compound 230, (4-(2-(4-(5-(difluoromethyl)-1,3,4-oxadiazol-2-yl)benzyl)-2H-tetrazol-5-yl)phenyl)(morpholino)methanone]
40	> 1e+06	O=C1NCc2ccc(-c3cnn(Cc4ccc(-c5nnc(C(F)F)o5)cn4)c3)cc21 [compound 318, 6-[1-[[5-[5-(difluoromethyl)-1,3,4-oxadiazol-2-yl]pyridin-2-yl]methyl]pyrazol-4-yl]-2,3-dihydroisoindol-1-one]
78	> 200000	O=C1NCc2ccc(-c3cn(Cc4ccc(-c5nnc(C(F)F)o5)cc4)cn3)cc21 [compound 294, 6-(1-(4-(5-(difluoromethyl)-1,3,4-oxadiazol-2-yl)benzyl)-1H-imidazol-4-yl)isoindolin-1-one]
215	> 200000	CC(C)(C)OC(=O)N1CCn2ncc(-c3cccc(-c4nnn(Cc5ccc(-c6nnc(C(F)F)o6)cc5)n4)c3)c2C1 [compound 240, tert-butyl 3-(3-(2-(4-(5-(difluoromethyl)-1,3,4-oxadiazol-2-yl)benzyl)-2H-tetrazol-5-yl)phenyl)-6,7-dihydropyrazolo[1,5-a]pyrazine-5 (4H)-carboxylate]
42	> 200000	O=C1Nc2ccc(-c3nnn(Cc4ccc(-c5nnc(C(F)F)o5)cc4)n3)cc2NC12CCCC2 [compound 110, 7′-(2-(4-(5-(difluoromethyl)-1,3,4-oxadiazol-2-yl)benzyl)-2H-tetrazol-5-yl)-1′,4′-dihydro-3′H-spiro[cyclopentane-1,2′-quinoxalin]-3′-one]
200	> 200000	CN(C)c1ccc(-c2cn(Cc3ccc(-c4nnc(C(F)F)o4)cc3)nn2)cc1 [compound 281, 4-(1-(4-(5-(difluoromethyl)-1,3,4-oxadiazol-2-yl)benzyl)-1H-1,2,3-triazol-4-yl)-N,N-dimethylaniline]

Compound	IC50 (recombinant human HDAC6) [nM]	IC50 (recombinant human HDAC1) [nM]
O=C1Nc2cc(-c3cn(Cc4ccc(-c5nnc(C(F)F)o5)cc4)nn3)ccc2C12CCNCC2 [compound 161, 6-(1-(4-(5-(difluoromethyl)-1,3,4-oxadiazol-2-yl)benzyl)-1H-1,2,3-triazol-4-yl)spiro[indoline-3,4′-piperidin]-2-one]	75	> 200000

Source: US20230286970A1, “NOVEL OXADIAZOLE-BASED SELECTIVE HDAC6 INHIBITORS” (ITALFARMACO S.P.A., priority 2020, published 2023)
